The results in this text go back to patent US11179383B2 (Gilead Sciences, Inc., priority 2018, dated 2021).

For the assay, the target named is T1, α4β7 integrin (Homo sapiens, UniProt P13612+P26010).
T1 construct: monitoring the capture of α4β7 integrin expressing cells on a recombinant MadCAM-1 extracellular domain-coated plate; endogenous in cells; host or cells: RPMI8866 cells
T1 sequence (P13612 34-1032): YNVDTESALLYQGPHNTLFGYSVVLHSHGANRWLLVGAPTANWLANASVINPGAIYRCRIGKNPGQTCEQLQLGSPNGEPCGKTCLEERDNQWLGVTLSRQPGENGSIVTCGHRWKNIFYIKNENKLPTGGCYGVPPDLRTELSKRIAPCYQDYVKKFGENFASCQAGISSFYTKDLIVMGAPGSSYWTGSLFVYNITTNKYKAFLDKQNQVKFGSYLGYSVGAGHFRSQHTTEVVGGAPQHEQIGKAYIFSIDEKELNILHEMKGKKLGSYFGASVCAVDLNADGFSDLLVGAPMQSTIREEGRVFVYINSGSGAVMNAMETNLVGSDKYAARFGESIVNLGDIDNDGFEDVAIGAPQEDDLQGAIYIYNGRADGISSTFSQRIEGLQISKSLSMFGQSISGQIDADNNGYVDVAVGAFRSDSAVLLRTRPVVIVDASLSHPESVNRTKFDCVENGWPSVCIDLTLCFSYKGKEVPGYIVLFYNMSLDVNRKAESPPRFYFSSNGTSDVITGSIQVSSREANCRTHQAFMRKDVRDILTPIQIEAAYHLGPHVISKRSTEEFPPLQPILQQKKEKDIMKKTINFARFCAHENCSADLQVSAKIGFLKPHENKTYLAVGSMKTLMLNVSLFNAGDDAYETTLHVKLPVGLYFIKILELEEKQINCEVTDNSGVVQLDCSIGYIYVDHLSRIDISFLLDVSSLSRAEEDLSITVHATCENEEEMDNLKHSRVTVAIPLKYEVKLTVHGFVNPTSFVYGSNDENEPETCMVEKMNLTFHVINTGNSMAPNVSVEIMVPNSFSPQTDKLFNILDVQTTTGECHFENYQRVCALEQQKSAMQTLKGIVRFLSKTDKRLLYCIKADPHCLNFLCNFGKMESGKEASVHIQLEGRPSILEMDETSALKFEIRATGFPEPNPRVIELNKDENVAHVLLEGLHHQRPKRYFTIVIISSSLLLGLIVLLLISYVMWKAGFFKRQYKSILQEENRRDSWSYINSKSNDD
T1 sequence (P26010 20-798): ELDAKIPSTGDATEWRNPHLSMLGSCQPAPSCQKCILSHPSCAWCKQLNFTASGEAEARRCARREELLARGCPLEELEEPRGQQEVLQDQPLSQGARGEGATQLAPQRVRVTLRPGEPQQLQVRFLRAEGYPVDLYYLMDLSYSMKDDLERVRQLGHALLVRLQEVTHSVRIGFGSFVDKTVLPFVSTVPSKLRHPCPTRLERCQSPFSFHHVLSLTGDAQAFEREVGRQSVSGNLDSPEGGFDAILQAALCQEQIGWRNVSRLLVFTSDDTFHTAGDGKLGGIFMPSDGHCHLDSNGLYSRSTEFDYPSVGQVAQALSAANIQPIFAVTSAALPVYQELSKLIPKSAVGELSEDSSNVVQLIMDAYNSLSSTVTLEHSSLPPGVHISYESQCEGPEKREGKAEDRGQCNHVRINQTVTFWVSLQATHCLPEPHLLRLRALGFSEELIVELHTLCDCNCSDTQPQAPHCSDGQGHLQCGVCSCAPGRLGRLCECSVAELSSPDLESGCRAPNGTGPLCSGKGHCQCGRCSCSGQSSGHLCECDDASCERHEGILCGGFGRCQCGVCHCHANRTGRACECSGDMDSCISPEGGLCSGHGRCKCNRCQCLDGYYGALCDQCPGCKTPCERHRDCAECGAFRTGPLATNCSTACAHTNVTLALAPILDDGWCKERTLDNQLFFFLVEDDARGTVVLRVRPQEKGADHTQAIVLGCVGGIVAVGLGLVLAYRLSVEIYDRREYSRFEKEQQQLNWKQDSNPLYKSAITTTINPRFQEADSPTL
Nature of the assay: α4β7 Integrin Cell Capture Assay. It is filed as cell-based. The note with it: capture of α4β7 integrin expressing RPMI8866 cells on recombinant MadCAM-1 extracellular domain-coated plate; DMEM+0.5% FBS+0.5 mM MnCl2; read-out: EC50 α4β7. The procedure:
α4β7 Integrin Cell Capture Assay
The potency of inhibitors in preventing α4β7 integrin interaction with MadCAM-1 was measured by monitoring the capture of α4β7 integrin expressing cells on a recombinant MadCAM-1 extracellular domain-coated plate.
384-Well plates (Corning 3702) were coated with MadCAM-1 extracellular domain by dispensing 20 μL of MAdCAM-1 at 1.0 μg/mL per well and incubating overnight at 4° C. The plates were then washed with PBS and blocked with 3% BSA for 2 hours before being washed again.
RPMI8866 cells were spun down and re-suspended in assay medium (DMEM+0.5% FBS+0.5 mM MnCl2) at a density of 0.5×10^6 cells/mL. The cells were then dispensed (60 μL/well) to a 384-well plate (Greiner 781280) that was previously spotted with 60 nL of test compound per well. The plates were incubated at 37° C. for 1 hour. 50 μL of cells were transferred to the blocked, MadCAM-1-coated plates and incubated for 30 minutes at 37° C. 10 μL of 12% glutaraldehyde containing Hoechst 33342 (0.06 mg/mL) was added to the cells (2% glutaraldehyde and 0.01 mg/mL final concentrations). The plates were incubated for 90 minutes at room temperature. The plates were then washed 3 times with 70 μL of PBS per well and imaged on a Cellomics ArrayScan instrument. The cells that were bound to the plate were counted and plotted against the compound concentration to determine the EC50 of the test compounds.

Broadly, the EC50 is the concentration needed to bring the measured effect to its halfway point. In the case of `Cc1cc(N2CCOC[C@@H]2C(F)(F)F)cc(F)c1C(=O)N[C@@H](Cc1ccc(-c2c(C(F)(F)F)cc(C)n(C)c2=O)c2nccnc12)C(=O)O` (atropisomer, axis not shown) [Example 178], the EC50 came out at 0.08 nM. As to `Cc1cc(C(F)(F)F)c(-c2ccc(C[C@H](NC(=O)c3c(F)cc(N4CCOC[C@@H]4C(F)(F)F)cc3F)C(=O)O)c3nccnc23)c(=O)n1C` (atropisomer, axis not shown) [Example 179], the EC50 was 0.1 nM. As to `O=C(N[C@@H](Cc1ccc(-c2c(Cl)cc(F)cc2Cl)c2cccnc12)C(=O)O)c1c(F)cc(N2CCOCC2C(F)(F)F)cc1F` (single isomer, unassigned) [Example 5], the EC50 is 702 nM. In the case of `O=C(N[C@@H](Cc1ccc(-c2c(Cl)cc(F)cc2Cl)c2cccnc12)C(=O)O)c1c(F)cc(N2CCOCC2C(F)(F)F)cc1F` (single isomer, unassigned) [Example 6], the EC50 was 139 nM. The result for `CC[C@@H](Nc1cc(F)c(C(=O)N[C@@H](Cc2ccc(-c3c(C)n(C)c(=O)n(C)c3=O)c3cccnc23)C(=O)O)c(F)c1)C(F)(F)F` (single isomer, unassigned) [Example 8] reads 0.8 nM.

Turning to `CC[C@@H](Nc1cc(F)c(C(=O)N[C@@H](Cc2ccc(-c3c(C)n(C)c(=O)n(C)c3=O)c3cccnc23)C(=O)O)c(F)c1)C(F)(F)F` (single isomer, unassigned) [Example 9], the EC50 amounted to 4.1 nM. Take `Cc1c(-c2ccc(C[C@H](NC(=O)c3c(Cl)cccc3Cl)C(=O)O)c3ncccc23)c(=O)n(C)c2ccc(F)cc12` (single isomer, unassigned) [Example 11]: the EC50 is 0.5 nM. In the case of `Cc1c(-c2ccc(C[C@H](NC(=O)c3c(Cl)cccc3Cl)C(=O)O)c3ncccc23)c(=O)n(C)c2ccc(F)cc12` (single isomer, unassigned) [Example 12], the EC50 was 19.5 nM. `Cc1c(-c2ccc(C[C@H](NC(=O)c3c(Cl)cccc3Cl)C(=O)O)c3ncccc23)c(=O)n(C)c2ccccc12` (single isomer, unassigned) [Example 47]: the EC50 was determined as 28.6 nM. Take `Cc1c(-c2ccc(C[C@H](NC(=O)c3c(Cl)cccc3Cl)C(=O)O)c3ncccc23)c(=O)n(C)c2ccccc12` (single isomer, unassigned) [Example 48]: the EC50 worked out at 2.1 nM. Regarding `COc1cc(F)cc(C(F)(F)F)c1-c1ccc(C[C@H](NC(=O)c2c(Cl)cccc2Cl)C(=O)O)c2ncccc12` (single isomer, unassigned) [Example 49], the EC50 stood at 46.2 nM. As to `COc1cc(F)cc(C(F)(F)F)c1-c1ccc(C[C@H](NC(=O)c2c(Cl)cccc2Cl)C(=O)O)c2ncccc12` (single isomer, unassigned) [Example 50], the EC50 was 152 nM. With `COc1cc(F)cc(Cl)c1-c1ccc(C[C@H](NC(=O)c2c(Cl)cccc2Cl)C(=O)O)c2ncccc12` (single isomer, unassigned) [Example 53], the EC50 is 150 nM. Turning to `COc1cc(F)cc(Cl)c1-c1ccc(C[C@H](NC(=O)c2c(Cl)cccc2Cl)C(=O)O)c2ncccc12` (single isomer, unassigned) [Example 54], the EC50 was 38.8 nM. Take `Cc1cc(C(F)(F)F)c(-c2ccc(C[C@H](NC(=O)c3c(Cl)cccc3Cl)C(=O)O)c3ncccc23)c(=O)n1C` (single isomer, unassigned) [Example 60]: the EC50 is 2.7 nM. The result for `Cc1cc(C(F)(F)F)c(-c2ccc(C[C@H](NC(=O)c3c(Cl)cccc3Cl)C(=O)O)c3ncccc23)c(=O)n1C` (single isomer, unassigned) [Example 61] reads 15.1 nM.

On to `Cn1c(=O)c(-c2ccc(C[C@H](NC(=O)c3c(Cl)cccc3Cl)C(=O)O)c3ncccc23)c(C(F)(F)F)c2ccccc21` (single isomer, unassigned) [Example 62], for which the EC50 was 3.2 nM.

Consider `Cn1c(=O)c(-c2ccc(C[C@H](NC(=O)c3c(Cl)cccc3Cl)C(=O)O)c3ncccc23)c(C(F)(F)F)c2ccccc21` (single isomer, unassigned) [Example 63], for which the EC50 was determined as 33.8 nM. With `Cn1c(=O)c(-c2ccc(C[C@H](NC(=O)c3c(Cl)cccc3Cl)C(=O)O)c3ncccc23)c(C(F)(F)F)c2cc(Br)ccc21` (single isomer, unassigned) [Example 64], the EC50 was found to be 4.4 nM. The result for `Cn1c(=O)c(-c2ccc(C[C@H](NC(=O)c3c(Cl)cccc3Cl)C(=O)O)c3ncccc23)c(C(F)(F)F)c2cc(Br)ccc21` (single isomer, unassigned) [Example 65] reads 26.8 nM. The result for `COc1cnn(C)c(=O)c1-c1ccc(C[C@H](NC(=O)c2c(Cl)cccc2Cl)C(=O)O)c2ncccc12` (single isomer, unassigned) [Example 73] reads 8.4 nM; that for `Cc1c(-c2ccc(C[C@H](NC(=O)c3c(Cl)cccc3Cl)C(=O)O)c3ncccc23)c(=O)n(C)c2ccc(Cl)cc12` (single isomer, unassigned) [Example 75], 23 nM; that for `Cc1c(-c2ccc(C[C@H](NC(=O)c3c(Cl)cccc3Cl)C(=O)O)c3ncccc23)c(=O)n(C)c2ccc(Cl)cc12` (single isomer, unassigned) [Example 76], 55.7 nM. For the molecule `Cc1c(-c2ccc(C[C@H](NC(=O)c3c(Cl)cccc3Cl)C(=O)O)c3ncccc23)c(=O)n(C)c2cc(Cl)ccc12` (single isomer, unassigned) [Example 77], the EC50 was determined as 60.4 nM. The result for `Cc1c(-c2ccc(C[C@H](NC(=O)c3c(F)cccc3F)C(=O)O)c3ncccc23)c(=O)n(C)c(=O)n1C` (single isomer, unassigned) [Example 81] reads 6.6 nM; that for `Cc1c(-c2ccc(C[C@H](NC(=O)c3c(F)cccc3F)C(=O)O)c3ncccc23)c(=O)n(C)c(=O)n1C` (single isomer, unassigned) [Example 82], 39 nM; that for `Cc1cc(C(F)(F)F)c(-c2ccc(C[C@H](NC(=O)c3c(F)cc(N4CCOC[C@@H]4C(F)(F)F)cc3F)C(=O)O)c3ncccc23)c(=O)n1C` (single isomer, unassigned) [Example 85], 3 nM.

Turning to `Cc1cc(C(F)(F)F)c(-c2ccc(C[C@H](NC(=O)c3c(F)cc(N4CCOC[C@@H]4C(F)(F)F)cc3F)C(=O)O)c3ncccc23)c(=O)n1C` (single isomer, unassigned) [Example 86], the EC50 was 0.3 nM.
